In US11584745B2, “Aromatic heterocyclic compound, intermediate thereof, preparation method therefor, and pharmaceutical composition and use thereof” (SHANGHAI YINGLI PHARMACEUTICAL CO., LTD, priority 2018, dated 2023):

Target: ALK5 (Homo sapiens (Human), UniProt P36897)
Assay: Evaluation experiment of ALK5 enzyme activity inhibition IC50 (ADP-Glo kinase assay)
Assay type: biochemical
Settings: 25 nM ALK5, 0.1 mg/mL peptide TGFbR1, 7 μM ATP, 30° C. 1 hour, ADP-Glo luminescence
Method: 1×kinase buffer preparation: 40 mM Tris (pH 7.5), 20 mM MgCl2, 0.10% BSA, 1 mM DTT.
Compound preparation: The final detection concentration of the compound was 10 μM, which was configurated to a 100-fold concentration, i.e., 1 mM. In the second well of the 384-well plate, 100 μL of 100-fold compound was added, and 60 μL of 100% DMSO was added to other wells. 30 μL of compound from the second well was taken and added to the third well, and a 3-fold dilution was made in sequence, a total of 10 concentrations were diluted. 50 nL of compound was transferred to the reaction plate with echo.
Kinase reaction: Kinase was added to 1×kinase buffer to form a 2×enzyme solution. […] The polypeptide TGFbR1 (purchased from Signal Chem, catalog number T36-58) and ATP were added to 1×kinase buffer to form a 2×substrate solution. The final concentration of the substrate solution was 0.1 mg/mL peptide TGFbR1, 7 μM ATP. 2.5 μL of 2×enzyme solution was added to the 384-well reaction plate (there was already 50 nL of 100% DMSO dissolved compound), and 1×kinase buffer was added to the negative control well. The plate was incubated at room temperature for 10 minutes. 2.5 μL of 2× substrate solution was added to the 384-well reaction plate. The 384-well plate was covered and incubated at 30° C. for 1 hour. ADP-Glo reagent (purchased from Promege, catalog number v9102) was equilibrated to room temperature. 5 μL of ADP-Glo reagent was transferred to the reaction well of the 384-well plate to stop the reaction.
Detection of reaction results: 10 μL of kinase detection reagent was transferred to each reaction well, the plate was shaken for 1 minute and placed at room temperature for 30 minutes. The sample luminescence value was read at Synegy.
Curve fitting: The data of the luminescence reading from the Synegy program were copied. The value of the luminescence reading was converted into the percentage of inhibition by a formula (inhibition percent=(max-sample RLU)/(max-min)*100, wherein “min” was a […] reading of the control sample without enzyme; “max” was the […] reading of sample with DMSO as a control). The data were imported into MS Excel and GraphPad Prism was used for curve fitting. The ICso value was calculated.

Chain of ALK5 (P36897 34-503): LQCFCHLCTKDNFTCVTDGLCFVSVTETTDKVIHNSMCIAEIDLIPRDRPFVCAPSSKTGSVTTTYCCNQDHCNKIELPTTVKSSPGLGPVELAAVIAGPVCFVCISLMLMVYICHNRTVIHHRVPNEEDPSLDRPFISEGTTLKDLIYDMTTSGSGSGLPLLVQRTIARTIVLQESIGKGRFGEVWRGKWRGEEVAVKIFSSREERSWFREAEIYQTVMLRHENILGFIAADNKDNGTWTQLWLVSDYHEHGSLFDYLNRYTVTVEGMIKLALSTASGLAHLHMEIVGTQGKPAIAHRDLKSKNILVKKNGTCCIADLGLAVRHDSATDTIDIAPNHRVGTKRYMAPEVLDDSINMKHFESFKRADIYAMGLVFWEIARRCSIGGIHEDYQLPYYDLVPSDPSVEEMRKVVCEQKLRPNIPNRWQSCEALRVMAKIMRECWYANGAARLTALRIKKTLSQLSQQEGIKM

Structure (SMILES) | IC50 [nM]
Cc1cccc(-c2cccn2-c2ccc3ncc(C(N)=O)n3c2)n1 [Compound 1] | 13
Cc1cccc(-n2cccc2-c2ccc3ncc(C(N)=O)n3c2)n1 [Compound 4] | 19
Cc1cccc(-n2cccc2-c2ccc3ncc(C(=O)N(C)C)n3c2)n1 [Compound 5] | 105
Cc1cccc(-c2cncn2-c2ccc3ncc(C(N)=O)n3c2)n1 [Compound 9] | 136
Cc1cccc(-c2cnsc2-c2ccc3nccn3c2)n1 [Compound 16] | 165
Cc1cccc(-c2cc3ccccc3n2-c2ccc3ncc(C(N)=O)n3c2)n1 [Compound 25] | 14

Other lines, results leading:

IC50 [nM] | Structure (SMILES)
7 | Cc1cccc(-c2nccn2-c2ccc3ncc(C(N)=O)n3c2)n1 [Compound 8]
5.2 | Cc1cccc(-c2ccsc2-c2ccc3ncc(C(N)=O)n3c2)n1 [Compound 17]
9.4 | Cc1cccc(-c2cc(C)sc2-c2ccc3ncc(C(N)=O)n3c2)n1 [Compound 18]
75 | Cc1cccc(-c2cccnc2-c2ccc3ncc(C(N)=O)n3c2)n1 [Compound 19]
76 | CNC(=O)c1cnc2ccc(-c3ncccc3-c3cccc(C)n3)cn12 [Compound 20]
21 | Cc1csc(-c2ncccc2-c2ccc3ncc(C(N)=O)n3c2)n1 [Compound 23]
